{"source": "patent US7432301B2", "about": "“Use of S-nitrosothiol signaling to treat disordered control of breathing” (University of Virginia Patent Foundation, priority 2001, dated 2008)", "key": {"[1]": {"tested_on": "respiratory centers of the NTS", "assay": "Minute ventilation (VE) by whole-body plethysmography after bilateral microinjection into the NTS of freely behaving, conscious rats", "format": "in vivo, rat", "conditions": "for increase in VE (minute ventilation): 1 nmol injected into NTS, conscious rats; for VE change from baseline: administered at NTS, dose not given (FIG. 1C); for onset/decay characteristics of the VE response: after injection into NTS, compared with hypoxia and return to normoxia (FIGS. 1A, 1B); for effect on VE: excess amount, n=3, P=NS", "text": "To test the hypothesis that SNOs stimulate respiratory centers of the NTS to increase VE, the ability of endogenous SNOs to increase VE in freely behaving, conscious rats using whole-body plethysmography was examined.\n(§1) A dual cannula (22G; Plastics One) was implanted close to the nucleus of the solitary tract according to standard stereotaxic coordinates (−14.0 mm bregma, 0.5 mm off midline, 7.0 mm depth; see Paxinos, G. & Watson, C. The Rat Brain in Stereotaxic Coordinates (Academic, New York, 1986), figure 74) through a hole drilled into the occipital skull of male Sprague-Dawley rats (approximately 250 g; pentobarbital anaesthesia). Placement was confirmed histologically after protocol completion. After recovery for 48 h (return to normal feeding and sleep/waking patterns), breath-by-breath ventilation was measured using the barometric method previously described (Gozal et al., J. Appl. Physiol. 81, 2068-2077 (1996)) after simultaneous, bilateral 0.1-ul injections in the freely behaving animal."}, "[2]": {"biological_target": "T1, γ-glutamyl transpeptidase (GGT) (Rattus norvegicus, UniProt P07314)", "T1 construct": "from tissue; host or cells: nucleus tractus solitarius (brainstem) of living male Sprague-Dawley rats", "T1 sequence (P07314 whole entry)": "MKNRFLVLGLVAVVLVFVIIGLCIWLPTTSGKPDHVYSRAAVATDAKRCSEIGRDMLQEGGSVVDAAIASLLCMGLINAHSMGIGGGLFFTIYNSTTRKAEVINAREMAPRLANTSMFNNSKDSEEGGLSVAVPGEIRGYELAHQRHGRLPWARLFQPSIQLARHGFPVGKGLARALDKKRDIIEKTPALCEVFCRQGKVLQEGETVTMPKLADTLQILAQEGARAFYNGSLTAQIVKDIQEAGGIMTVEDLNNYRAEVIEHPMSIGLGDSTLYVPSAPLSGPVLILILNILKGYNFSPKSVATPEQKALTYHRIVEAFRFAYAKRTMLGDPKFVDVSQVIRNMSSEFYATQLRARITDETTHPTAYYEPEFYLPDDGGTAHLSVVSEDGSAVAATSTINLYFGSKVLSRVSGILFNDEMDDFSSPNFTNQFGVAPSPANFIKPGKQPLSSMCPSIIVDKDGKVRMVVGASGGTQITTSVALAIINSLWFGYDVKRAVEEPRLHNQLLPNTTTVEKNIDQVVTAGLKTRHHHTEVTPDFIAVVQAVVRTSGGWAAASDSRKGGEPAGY", "assay": "Effect of GGT inhibition (acivicin pre-treatment of NTS) on ventilatory effects of SNOs and on ventilatory offset", "format": "in vivo", "conditions": "for SNO-stimulated VE increase after GGT inhibition: SNO 10 nmol microinjection after pre-treatment with acivicin 7.5 nmol (FIG. 2A)", "text": "CGSNO (10 nmol) stimulated VE increases that were not modified by acivicin (P=NS; n=6). FIG. 2B represents the data generated from a hypoxic ventilatory response in GGT-deficient mice (+/+, wild type; +/−, heterozygotes; −/−, GGT-deficient). Lowest VE during the 30 s after cessation of hypoxia is expressed as percent change from pre-hypoxia baseline (P<0.0001; n=8 each group).\nEndothelial transport and targeted neuronal biological activity of GSNO may depend, under certain circumstances, on biochemical modifications such as cleavage by GGT to form CGSNO. […] Moreover, normal ventilatory offset (that is, the gradual return to baseline of VE after recovery from hypoxia that prevents apnea) was inhibited by acivicin. […] This distinction may have pharmacological implications.\nas §1"}, "[3]": {"tested_on": "blood pressure or heart rate", "assay": "Hemodynamic effects (blood pressure, heart rate) of SNOs", "format": "in vivo", "conditions": "same species"}, "[4]": {"assay": "Relative stability of deoxygenated blood-derived SNOs", "format": "physicochemical", "protocol": "Oxygenated blood drawn in an airtight syringe with GSH and EDTA (final concentrations 400 μM) by left ventricular puncture (rat) or peripherally (human) was maintained in 21% oxygen. Venous blood was reacted identically and was transferred to a hypoxia chamber under argon. Oxygen tension was measured electrochemically (Chirion). Samples underwent centrifugation (3,000 g for 5 min) followed by ultrafiltration (10K; Millipore), separation and selective ultraviolet photolysis (Jelight PS-3000-30; Laguna-Hills).\n(§2) SNOs were prepared by acid nitrosation, titrated to pH 7.4 and maintained in EDTA in the dark at −80° C. until use to prevent decomposition. SNOs were detected by reduction/chemiluminescence as previously described (Fang et al., Biochem. Biophys. Res. Commun. 252, 535-540 (1998)). Briefly, samples were injected into 100 μM CuCl, 1 mM cysteine (pH 6; 50 8C) and purged with helium (grade 5; BOC Gases). Evolved NO was measured by chemiluminescence."}, "[5]": {"assay": "Decay of CSNO isomers in rat brainstem homogenates", "format": "in vitro ADME", "protocol": "To test the hypothesis that SNOs stimulate respiratory centers of the NTS to increase VE, the ability of endogenous SNOs to increase VE in freely behaving, conscious rats using whole-body plethysmography was examined. […] The L- and D-isomers of CSNO decayed at identical rates in rat brainstem homogenates (26% min-1 mg -1 protein each; P=not significant (NS)).\nas §2"}}, "note": "Entries after “also recorded” stand apart in the source; their conditions may differ."}
{"compound": "N[C@@H](CCC(=O)N[C@@H](CSN=O)C(=O)NCC(=O)O)C(=O)O", "note": "[GSNO, S-nitrosoglutathione]", "values": [{"measurement": "increase in VE (minute ventilation)", "setting": "[1]", "value": "equivalent increases"}, {"measurement": "VE change from baseline", "setting": "[1]", "value": "increases in VE; also recorded: dramatically increase"}, {"measurement": "onset/decay characteristics of the VE response", "setting": "[1]", "value": "identical to those for recovery from hypoxia"}, {"measurement": "SNO-stimulated VE increase after GGT inhibition", "setting": "[2]", "value": "abolished"}, {"measurement": "effects on blood pressure or heart rate (hemodynamic effects)", "setting": "[3]", "value": "no effects; also recorded: not reproduced"}]}
{"compound": "N[C@@H](CSN=O)C(=O)NCC(=O)O", "note": "[CGSNO, S-Nitrosocysteinyl glycine]", "values": [{"measurement": "increase in VE (minute ventilation)", "setting": "[1]", "value": "marked increase; also recorded: equivalent increases"}, {"measurement": "VE change from baseline", "setting": "[1]", "value": "increases in VE"}, {"measurement": "onset/decay characteristics of the VE response", "setting": "[1]", "value": "identical to those observed during short exposure of the whole animal to hypoxia and return to normoxia"}, {"measurement": "SNO-stimulated VE increase after GGT inhibition", "setting": "[2]", "value": "not modified; also recorded: increases minute ventilation; also recorded: overcame this inhibition"}, {"measurement": "stability relative to GSNO", "setting": "[4]", "value": "less stable than GSNO"}]}
{"compound": "Nc1nc2c(nc(Br)n2[C@@H]2O[C@@H]3COP(=O)(O)O[C@H]3[C@H]2O)c(=O)[nH]1", "note": "[8-bromocyclic GMP, reference compound]", "values": [{"measurement": "effect on VE", "setting": "[1]", "value": "neither excess 8-bromocyclic GMP nor glutathione had any effect"}]}
{"compound": "N[C@H](C(=O)O)[C@@H]1CC(Cl)=NO1", "note": "[acivicin, reference compound]", "values": [{"measurement": "effect on GSNO-mediated increases in VE", "setting": "[2]; NTS pre-treatment with the inhibitor", "value": "attenuated"}, {"measurement": "effect on normal ventilatory offset (gradual return of VE to baseline after hypoxia)", "setting": "[2]; recovery from hypoxia", "value": "inhibited"}]}
{"compound": "N[C@@H](CCC(=O)N[C@@H](CS)C(=O)NCC(=O)O)C(=O)O", "note": "[glutathione]", "values": [{"measurement": "effect on VE", "setting": "[1]", "value": "neither excess 8-bromocyclic GMP nor glutathione had any effect"}]}
{"compound": "N[C@@H](CSN=O)C(=O)O", "note": "[L-CSNO, S-nitroso-L-cysteine]", "values": [{"measurement": "increase in VE (minute ventilation)", "setting": "[1]", "value": "equivalent increases"}, {"measurement": "VE change from baseline", "setting": "[1]", "value": "increases in VE"}, {"measurement": "decay rate", "setting": "[5]", "value": 26, "unit": "% min-1 mg -1 protein"}]}
{"compound": "N[C@H](CSN=O)C(=O)O", "note": "[D-CSNO, S-nitroso-D-cysteine, reference compound]", "values": [{"measurement": "increase in VE (minute ventilation)", "setting": "[1]", "value": "no effect"}, {"measurement": "VE change from baseline", "setting": "[1]", "value": "without effect"}, {"measurement": "decay rate", "setting": "[5]", "value": 26, "unit": "% min-1 mg -1 protein"}]}
